# Values of other authors in patent US8740762B2, “Specific inhibition of cPLA2 enhances the efficacy of radiotherapy” (Vanderbilt University, priority 2007, dated 2014).
# How the values were obtained:
# [1] = test system: pro-survival kinases; conditions: 20 μM
# [2] = test system: HUVEC
substance,measurement,setting,value
lysophosphatidylcholine [LPC],activation of pro-survival kinases,[1],activated the same pro-survival kinases
same,cell death,[2]; concentrations higher than 25 μM,promote cell death
same,proliferation of HUVEC,[2]; up to 25 μM,increase proliferation
